{
  "source": "patent US7947869B2",
  "about": "“Methods for inducing cotton embryogenic callus” (Monsanto Technology LLC, priority 2007, dated 2011)",
  "type_in_all_cases": "cell-based, cotton (cv. Coker 130)",
  "key": {"[1]": {"system": "Agrobacterium-inoculated cotton hypocotyl explants", "experiment": "Effect of ACC on embryogenic callus from transformed tissue (pMON15722, kanamycin selection)", "method": "Addition of ACC produced a similar enhancing effect on producing embryogenic callus from transformed tissue. The hypocotyl explants were inoculated with Agrobacterium containing a plant transformation vector pMON15722 having an expression unit conferring kanamycin tolerance. The explants were pre-soaked in 2-hr in MSO glucose medium (Table 3) before inoculation. After 2 days of co-culture at about 24° C., the inoculated hypocotyl pieces were placed on WPSEL medium containing 45 mg/L of kanamycin for 4 weeks for callus induction. After callus induction, the explants were again transferred to WPSEL medium for another 4 weeks. Different concentrations of ACC were incorporated in the medium at this step."}, "[2]": {"system": "cotton hypocotyl explants", "experiment": "Effect of ACC during callus induction or embryogenic callus induction step", "method": "An ethylene precursor, 1-aminocyclopropane-1-carboxylic acid (ACC) was added at the step of undifferentiated callus formation, and removed prior to embryogenesis, to speed up embryogenic callus formation.\nThree studies were performed to define the effect of ACC on enhancing embryogenic callus formation. In the first experiment summarized in Table 19, hypocotyl explants were placed on UMSEL medium containing different concentrations of ACC (Treatments 2-6), or containing no ACC (treatment 7). The plates were unwrapped and placed in two separate boxes (Treatments 2-6 in one box and Treatments 7-12 in another), and cultured at 28° C. with a photoperiod of 16 hr light/8 hr darkness. After four weeks of callus induction, the calli were transferred to UMO medium without ACC (Treatments 2-6), or to UMO plus different concentrations of ACC (Treatments 8-12) for embryogenic callus induction. The plates were wrapped with PARAFILM at this stage."}, "[3]": {"system": "embryogenic cotton callus", "experiment": "Effect of brassinolide on embryo production at 9% and 21% O2 levels", "method": "When embryogenic callus was placed on brassinolide containing TRP+ medium (Table 9) at either 9% or 21% O2, more embryos were produced in the brassinolide treatments at 9% than at 21% O2. Lower level of 10 μM brassinolide gave the greatest response at 9% O2 but 100 μM level of brassinolide was more useful in 21% O2. […] Different levels of O2 were created by using a PRO-OX 110 oxygen control according to manufacturer's instructions (BioSpherix, Redfield, N.Y.) in a growth chamber (e.g. Percival Scientific, Inc., Perry, Iowa). Results in Table 12 indicate that brassinolide promotes the growth and development of embryos from cotton embryogenic callus."}, "[4]": {"system": "embryogenic cotton callus", "experiment": "Effect of brassinolide in TRP+ medium on production of embryos from embryogenic cotton callus", "method": "A brassinosteroid plant growth regulator was used to enhance cotton embryo formation. Brassinolide (i.e. 24-epibrassinolide; Super-Grow, Montreal, Calif.), at a concentration from 2 to 100 μM was added to TRP+ medium (Table 9). Embryogenic callus from the UMO medium (Table 8) was then cultured on TRP+ medium containing Brassinolide. […] Besides an increase in the overall production of embryos, many of the embryos produced from the brassinolide treatment were 5-6 mm long heart shaped embryos (more developed), whereas there were none at this stage in the control treatment. […]"}, "[5]": {"conditions": "ACC 0.01 mM at callus induction step (UMSEL), removed on UMO"}, "[6]": {"conditions": "ACC 0.1 mM at callus induction step (UMSEL)"}, "[7]": {"conditions": "ACC 0.5 mM at callus induction step (UMSEL)"}, "[8]": {"conditions": "ACC 1 mM at callus induction step (UMSEL)"}, "[9]": {"conditions": "ACC 5 mM at callus induction step (UMSEL)"}, "[10]": {"conditions": "2 μM brassinolide in TRP+ medium"}, "[11]": {"conditions": "5 μM brassinolide in TRP+ medium"}, "[12]": {"conditions": "10 μM brassinolide in TRP+ medium"}, "[13]": {"conditions": "15 μM brassinolide in TRP+ medium"}},
  "data": [
    {"molecule": "NC1(C(=O)O)CC1", "note": "[ACC, 1-aminocyclopropane-1-carboxylic acid]", "values": [
      {"measurement": "% Pieces w/ EC after 6 weeks on UMO medium with Kanamycin", "setting": "[1]; ACC 10 μM during non-embryogenic callus growth on WPSEL", "value": 18.4, "unit": "%"},
      {"measurement": "% Pieces w/ EC after 6 weeks on UMO medium with Kanamycin", "setting": "[1]; ACC 30 μM during non-embryogenic callus growth on WPSEL", "value": 22.1, "unit": "%"},
      {"measurement": "% Pieces w/ EC after 6 weeks on UMO medium with Kanamycin", "setting": "[1]; ACC 60 μM during non-embryogenic callus growth on WPSEL", "value": 21.6, "unit": "%"},
      {"measurement": "% Pieces w/ EC after 6 weeks on UMO medium with Kanamycin", "setting": "[1]; ACC 100 μM during non-embryogenic callus growth on WPSEL", "value": 26.5, "unit": "%"},
      {"measurement": "% Pieces w/ EC after 6 weeks on UMO medium with Kanamycin", "setting": "[1]; ACC 150 μM during non-embryogenic callus growth on WPSEL", "value": 44.0, "unit": "%"},
      {"measurement": "% EC at 7 week", "setting": "[2]; [5]", "value": 80, "unit": "%"},
      {"measurement": "% EC at 9 week", "setting": "[2]; [5]", "value": 94, "unit": "%"},
      {"measurement": "% EC at 9 week", "setting": "[2]; ACC 0.01 mM at embryogenic callus induction step (UMO)", "value": 35, "unit": "%"},
      {"measurement": "% EC at 7 week", "setting": "[2]; [6]", "value": 50, "unit": "%"},
      {"measurement": "% EC at 9 week", "setting": "[2]; [6]", "value": 90, "unit": "%"},
      {"measurement": "% EC at 9 week", "setting": "[2]; ACC 0.1 mM at embryogenic callus induction step (UMO)", "value": 5, "unit": "%"},
      {"measurement": "% EC at 7 week", "setting": "[2]; [7]", "value": 58, "unit": "%"},
      {"measurement": "% EC at 9 week", "setting": "[2]; [7]", "value": 88, "unit": "%"},
      {"measurement": "% EC at 9 week", "setting": "[2]; ACC 0.5 mM at embryogenic callus induction step (UMO)", "value": 10, "unit": "%"},
      {"measurement": "% EC at 7 week", "setting": "[2]; [8]", "value": 28, "unit": "%"},
      {"measurement": "% EC at 9 week", "setting": "[2]; [8]", "value": 62, "unit": "%"},
      {"measurement": "% EC at 9 week", "setting": "[2]; ACC 1 mM at embryogenic callus induction step (UMO)", "value": 10, "unit": "%"},
      {"measurement": "% EC at 9 week", "setting": "[2]; ACC 3 mM at embryogenic callus induction step (UMO)", "value": 0, "unit": "%"},
      {"measurement": "% EC at 7 week", "setting": "[2]; [9]", "value": 0, "unit": "%"},
      {"measurement": "% EC at 9 week", "setting": "[2]; [9]", "value": 0, "unit": "%"}
    ]},
    {"molecule": "CC(C)[C@@H](C)[C@@H](O)[C@H](O)[C@@H](C)[C@H]1CC[C@H]2[C@@H]3COC(=O)[C@H]4C[C@H](O)[C@H](O)C[C@]4(C)[C@H]3CC[C@]12C", "note": "[Brassinolide, 24-epibrassinolide]", "values": [
      {"measurement": "Number of Embryos Produced", "setting": "[3]; 10 μM brassinolide, 9% O2, 4 weeks", "value": 18},
      {"measurement": "Number of Embryos Produced", "setting": "[3]; 10 μM brassinolide, 9% O2, 7 weeks", "value": 30},
      {"measurement": "Number of Embryos Produced", "setting": "[3]; 10 μM brassinolide, 9% O2, 9 weeks", "value": 48},
      {"measurement": "Number of Embryos Produced", "setting": "[3]; 10 μM brassinolide, 21% O2, 4 weeks", "value": 21},
      {"measurement": "Number of Embryos Produced", "setting": "[3]; 10 μM brassinolide, 21% O2, 7 weeks", "value": 28},
      {"measurement": "Number of Embryos Produced", "setting": "[3]; 10 μM brassinolide, 21% O2, 9 weeks", "value": 21},
      {"measurement": "Number of Embryos Produced", "setting": "[3]; 50 μM brassinolide, 9% O2, 4 weeks", "value": 8},
      {"measurement": "Number of Embryos Produced", "setting": "[3]; 50 μM brassinolide, 9% O2, 7 weeks", "value": 12},
      {"measurement": "Number of Embryos Produced", "setting": "[3]; 50 μM brassinolide, 9% O2, 9 weeks", "value": 35},
      {"measurement": "Number of Embryos Produced", "setting": "[3]; 50 μM brassinolide, 21% O2, 4 weeks", "value": 10},
      {"measurement": "Number of Embryos Produced", "setting": "[3]; 50 μM brassinolide, 21% O2, 7 weeks", "value": 8},
      {"measurement": "Number of Embryos Produced", "setting": "[3]; 50 μM brassinolide, 21% O2, 9 weeks", "value": 11},
      {"measurement": "Number of Embryos Produced", "setting": "[3]; 100 μM brassinolide, 9% O2, 4 weeks", "value": 1},
      {"measurement": "Number of Embryos Produced", "setting": "[3]; 100 μM brassinolide, 9% O2, 7 weeks", "value": 9},
      {"measurement": "Number of Embryos Produced", "setting": "[3]; 100 μM brassinolide, 9% O2, 9 weeks", "value": 21},
      {"measurement": "Number of Embryos Produced", "setting": "[3]; 100 μM brassinolide, 21% O2, 4 weeks", "value": 6},
      {"measurement": "Number of Embryos Produced", "setting": "[3]; 100 μM brassinolide, 21% O2, 7 weeks", "value": 9},
      {"measurement": "Number of Embryos Produced", "setting": "[3]; 100 μM brassinolide, 21% O2, 9 weeks", "value": 33},
      {"measurement": "Brassinolide level giving the greatest response", "setting": "[3]; 9% O2", "value": 10, "unit": "µM"},
      {"measurement": "Brassinolide level more useful", "setting": "[3]; 21% O2", "value": 100, "unit": "µM"},
      {"measurement": "Embryo stages: 2-3 mm globules", "setting": "[4]; [10]", "value": 3},
      {"measurement": "Embryo stages: 5-6 mm heart shaped", "setting": "[4]; [10]", "value": 0},
      {"measurement": "Total embryos", "setting": "[4]; [10]", "value": 3},
      {"measurement": "Embryo stages: 2-3 mm globules", "setting": "[4]; [11]", "value": 10},
      {"measurement": "Embryo stages: 5-6 mm heart shaped", "setting": "[4]; [11]", "value": 8},
      {"measurement": "Total embryos", "setting": "[4]; [11]", "value": 18},
      {"measurement": "Embryo stages: 2-3 mm globules", "setting": "[4]; [12]", "value": 6},
      {"measurement": "Embryo stages: 5-6 mm heart shaped", "setting": "[4]; [12]", "value": 11},
      {"measurement": "Total embryos", "setting": "[4]; [12]", "value": 17},
      {"measurement": "Embryo stages: 2-3 mm globules", "setting": "[4]; [13]", "value": 6},
      {"measurement": "Embryo stages: 5-6 mm heart shaped", "setting": "[4]; [13]", "value": 9},
      {"measurement": "Total embryos", "setting": "[4]; [13]", "value": 15}
    ]}
  ]
}
